{"source": "paper PMC9510126", "about": "“Hydrophobicity is a key determinant in the activity of arginine-rich cell penetrating peptides” (Scientific Reports, 2022)", "key": {"MDA-MB-231 cells [1]": {"tested_on": "MDA-MB-231 cells", "assay": "Delivery of TMR-k5 probe into live cells (nuclear staining)", "assay_type": "cell-based, human", "settings": "MDA-MB-231, d(X)TAT at various concentrations + TMR-k5 20 μM, 1 h, fluorescence microscopy, biological triplicates", "text": "To test the relative delivery efficiency of the d(X)TAT peptides, the cell lines MDA-MB-231 (epithelial-like, human breast cancer, spindle-shaped) and Neuro-2a (mouse neuroblastoma with neuronal and amoeboid stem cell morphology) were chosen. These cell lines are routinely used in cancer research, neuroscience, and toxicology. In the context of this study, we rationalized that the distinct differences in origin and characteristics between MDA-MB-231 and Neuro-2a properties may be useful to assess the generality of the results obtained. MDA-MB-231 or Neuro-2a cells were incubated with d(X)TAT peptides at various concentrations and TMR-k5 (20 μM) for 1 h. Cells were then washed, incubated with the DNA stain Hoechst and the live/dead marker SYTOX green (or SYTOX blue), and imaged by fluorescence microscopy. The localization of TMR-k5 in individual nuclei was then assessed by measuring the overlap between TMR and Hoechst signals (Fig. 2, Figure S13). […] This is because, in our experience, dfTAT and dfTAT analogs display a threshold behavior where, below a certain endosomal concentration, endosomal leakage is not achieved. In contrast above this threshold most late endosomes are permeabilized. […] Our rationale was therefore to titrate cells with different concentrations of d(X)TAT agents, monitor how many cells display cytosolic/nuclear delivery of TMR-k5, and compare the different d(X)TAT peptides.\nMDA-MB-231 and Neuro2a cells obtained from ATCC (breast cancer-derived epithelial) were cultured in humidified atmosphere at 5% CO2 and 37 °C. Cells were seeded in plastic 48-well plates (Fisher) for quantitative analysis or 8-well Labtek II plates (Fisher) for qualitative imaging at 100× magnification. The cells were grown to 80–90% confluency in a 37 °C humidified atmosphere containing 5% CO2. Cells were washed three times with Leibovitz’s L15 media (L15) (Fisher). Cells were then incubated with peptide and 20 µM of the TMR-k5 pentalysine probe at 37 °C for 1 h. This was followed by washing the cells three times with L15 supplemented with heparin (Sigma-Aldrich) (1 mg/mL) and an extra L15 wash. […] Additionally, the cell permeable dye Hoechst 33342 (Thermo Fisher Scientific o) was used for nuclear staining. Cells were imaged using an EVOS FL Auto 2 inverted microscope (Thermo Fisher Scientific). The microscope is equipped with a heating chamber maintained at 37 °C. Images were acquired using bright field imaging and five fluorescence filter sets: CFP (Ex = 436 ± 10 nm, Em = 480 ± 20 nm), RFP (Ex = 560 ± 20 nm, Em = 630 ± 35 nm), FITC (Ex = 488 ± 10 nm Em = 520 ± 20 nm), DAPI (Ex = 350 ± 50 nm, Em = 460 ± 25 nm), […]. For image viewing and processing individual images, the Celleste 4.0 software (Thermo Fisher Scientific) was used. Nuclear regions in 20× images where identified using Hoechst staining (the quantification process is described in Figure S13). The intensity of these objects in the TMR channel was then determined using the Celleste software. Cells stained by the SYTOX or DRAQ dyes were considered dead and not counted as positive for delivery. Cells displaying a nuclear TMR-k5 fluorescence above the fluorescence threshold determined for TMR-k5 alone were considered positive for delivery (if excluding SYTOX or DRAQ7 stain, and if visually showing stained nucleoli for confirmation of intracellular localization). The percentage of cells positive for TMR-k5 nuclear staining was then calculated, using Hoechst-stained cells to count the total number of cells present. […] Instead, this assay quantifies the number of cells in which the nuclear fluorescence of TMR-k5 is above a detection threshold. This threshold is dependent on the microscope, imaging conditions, and the concentration of TMR-k5 used during incubation (Figure S13). The reproducibility of all the experiments was assessed by performing experiments with independent batches of cell cultures on three different days (i.e., biological triplicates). […]"}, "MDA-MB-231 cells [2]": {"tested_on": "MDA-MB-231 cells", "assay": "Staining of endosomes with LysoTracker (puncta per cell)", "assay_type": "cell-based, human", "settings": "MDA-MB-231, 1 h with peptide (X = K(Ac), WW, FFLIP at 10, 1.5, 1.5 μM), LysoTracker Green DND-26 500 nM 5 min, biological triplicates", "method": "Given that hydrophobicity of the d(X)TAT peptides appears to contribute to their membrane permeation activities, we next sought to establish whether this relationship could be recapitulated with membrane models, i.e. lipid bilayers. To establish which membrane system to test, we first aimed to test whether d(X)TAT peptides generally recapitulate the mechanism of cell entry previously determined with dfTAT. For this purpose, the delivery of TMR-k5 was performed in cells transfected with dominant-negative (DN) rab7(T22N), a protein that disrupts trafficking from early endosomes to late endosomes[29],[30]. For these experiments, d(WW)TAT and d(FFLIP)TAT were chosen as two “high activity/hydrophobicity” d(X)TAT representatives. […] In this case, approximately 5% of cells remained positive for TMR-k5 nuclear staining. […] To further probe the cell penetration mechanism, the number of endosomal organelles stained by Lysotracker in cells before and after delivery was quantified. The rationale behind this assay is that lysotracker accumulates in acidified organelles, typically late endosomes and lysosomes, that endosomal membrane leakage causes an increase of endosomal pH (presumably via leakage of luminal H^+ into the cytosol), and that, consequently, endosomes rendered potentially leaky by d(X)TAT peptides will not be stained by lysotracker.\nFor the quantification of acidic vesicles, cells were treated with LysoTracker Green DND-26 (500 nM) for 5 min. Alternatively, cells were pretreated with L-Leu-L-Leu methyl ester (LLOME; Sigma-Aldrich) incubated at 1 mM for 10 min, or bafilomycin (Sigma-Aldrich) at 1 µM for 4 h, and then stained with LysoTracker. Likewise, cells were pretreated with d(X)TAT peptides (X = K(Ac), WW, or FFLIP at 10, 1.5, and 1.5 μM) for 1 h. Cells were then washed an stained with LysoTracker immediately or after 12 h incubation in DMEM. For all conditions, fluorescence microscopy images were acquired using the 100× objective on an Olympus IX-81 microscope. ImageJ was used to calculate the number of LysoTracker-stained puncta per cell, as well as the area of each individual puncta. This analysis was performed for 50 cells imaged for each condition and reproduced in biological triplicates."}}, "note": "“Also recorded” adds a separate entry of the source. Ends that are not written are not given here."}
{"substance": "d(K(Ac))TAT: disulfide dimer of CXRKKRRQRRRG with X = lysine conjugated to an acetyl group (CK(Ac)RKKRRQRRRG-NH2; also: disulfide dimer)", "values": [{"measurement": "TMR-k5 delivery activity (cells with TMR-k5 nuclear staining)", "setting": "MDA-MB-231 cells [1]", "value": "little to no TMR-k5 delivery is detected; also recorded: no detectable delivery activity; also recorded: does not have a delivery activity detectable"}, {"measurement": "lysotracker stained endosomes (puncta per cell) immediately after incubation", "setting": "MDA-MB-231 cells [2]", "value": "did not affect lysotracker staining"}]}
